Experimental data: patent US20050039231A1, “Method for selecting transformed plant cells using ethionine and cystathionine gamma synthase as the selection agent and marker gene” (Rutgers, The State University, priority 1999, published 2005)

What was measured:
wild-type potato plants = experiment: Effect of ethionine in the maintenance medium on growth of wild-type potato plants; type: in vivo, Russet Burbank potato
Protocol: (§1) Inaba, et al. used 100 μM ethionine, the toxic analogue of methionine to select Arabidopsis thaliana mutants that overaccumulated methionine. We tested the effects of ethionine on the growth of transgenic potato plants by incorporating ethionine into the maintenance medium. Several concentrations of ethionine, 10, 25, 50, 100, 200, 300 μM were tested initially using wild-type potato plants.

[1] = tested on: transgenic potato plants (CGS+); experiment: Resistance to ethionine in CGS+ transgenic potato plants (growth on maintenance medium with ethionine); type: in vivo, Russet Burbank potato
Protocol: as §1

[2] = ethionine 10 μM in maintenance medium

## CCSCC[C@H](N)C(=O)O [ethionine]
wild-type potato plants; [2]
  growth of wild-type potato plants: growth of wild-type plants were inhibited
wild-type potato plants; ethionine 50 μM and higher (10, 25, 50, 100, 200, 300 μM tested) in maintenance medium
  growth of wild-type potato plants: total inhibition of growth
[1]; [2]
  growth of transgenic potato plants: continued to grow
  root initiation of transgenic potato plants: all transgenic plants initiated roots in three days
[1]; ethionine 25 and 50 μM in maintenance medium
  growth of transgenic potato plants: only CGS4 and CGS8 had limited growth of roots
